Legend:
HIV-1 integrase = biological target: T1, HIV-1 integrase (Human immunodeficiency virus type 1 group M subtype B, UniProt P12497); assay: Electrochemiluminescent integrase strand transfer assay (BioVeris), high-throughput screen; format: biochemical; settings: single dose 10 µM; read-out: inhibition of IN ST activity
T1 construct: 250 nM of recombinant HIV-1 integrase; made in house; host or cells: E. coli RosettaII
Protocol: To enable a high-throughput screening, we used the ST assay developed by BioVeris. This proprietary plate-based assay measured stand transfer using electrochemiluminescent technology. First, we validated the assay using HIV-1 IN in the presence of DMSO, or increasing concentrations of a known inhibitor, MA-DKA (also known as 118-D-24, Figure 1A). […] Next, we used MA-DKA as a control in every test plate and screened a large library of molecules. Overall, 3095 compounds were tested as part of the NCI Developmental Therapeutics Program’s small molecule plated sets from the Open Chemical Repository Collection. […] A single dose testing (10 µM) enabled the identification of 130 molecules that inhibited ST by over 50% (light dashed line, Figure 1A). […] NSC153308 is a 2-phenacylsulfanylacetic acid that resembles the diketo acid chemotype. On the other side, NSC119889 is a xanthene derivative similar to V-165 [6]. […] However, the purpose of this study was to identify a new chemotype that might act on IN via a novel mechanism, distinct from known active site inhibitors. Accordingly, we retrieved the chemical structure of the 130 hits and looked for a chemical pattern different from that of conventional strand transfer inhibitors.
This electrochemiluminescent plate-based assay was performed using a BioVeris M-SERIES Analyzer (Gaithersburg, MD, USA). DNA substrates were obtained from BioVeris and used according to the manufacturer’s recommendations. Briefly, a biotinylated donor DNA was incubated for 30 min at 37 °C in the presence of 250 nM of recombinant HIV-1 integrase. Complexes were bound to paramagnetic streptavidin-coated beads (M-280 Dynabeads). After addition of the drug, the integration reaction was initiated by addition of a ruthenium-labeled target DNA. The reaction was carried out for 60 min at 37 °C, before reading on the BioVeris M-SERIES Analyzer.

[1] = biological target: T2, isolated catalytic core domain (CCD) of IN (Human immunodeficiency virus type 1 group M subtype B, UniProt P12497); assay: Disintegration reaction, isolated catalytic core domain; format: biochemical, HIV-1; settings: branched substrate
T2 construct: the isolated catalytic core domain (CCD) (51–212); made in house; host or cells: E. coli RosettaII
Excerpt: Conventional IN strand transfer inhibitors bind at the interface created by the protein, viral DNA, and two magnesium cations in the catalytic site of the enzyme. Because stilbene disulfonic acid derivatives inhibit both 3′-P and ST with a similar efficiency, they may act outside the IN catalytic site. To determine if IN domains other than the catalytic core domain (CCD) are involved in the inhibitory activity of NSC34931, we tested this compound on disintegration, the only IN-mediated reaction that can be catalyzed by the isolated CCD. Disintegration is equivalent to a reverse-ST reaction (Figure 3A). Using a branched substrate, the WT enzyme as well as the isolated CCD catalyzed disintegration with similar efficiency (Figure 3B). NSC34931 inhibited disintegration catalyzed by the full-length IN at concentrations above 4.1 µM (Figure 3B,C). However, NSC34931 was unable to inhibit disintegration catalyzed by the CCD at concentrations up to 37 µM (Figure 3B,C). These experiments indicate that the N-terminal domain (NTD) and/or the C-terminal domain (CTD) are essential for IN inhibition by NSC34931.
Figure 3 Inhibition of the disintegration reaction by NSC34931. (A) Schematic representation of the disintegration reaction. […]

full-length IN (1–288) = biological target: T3, full-length IN (1–288) (Human immunodeficiency virus type 1 group M subtype B, UniProt P12497); assay: Schiff base IN-DNA crosslinking assay, full-length IN; format: binding, HIV-1
T3 construct: using full-length IN (1–288), the isolated catalytic core domain (CCD) (51–212); made in house; host or cells: E. coli RosettaII
Excerpt: (§1) To gain further evidence that NSC34931 interferes with DNA binding, and to determine the role of outer domains in this inhibition, we evaluated the ability of NSC34931 to inhibit the formation of IN-DNA crosslinks using our previously described Schiff base assay. Briefly, a deoxyuracyl nucleotide is incorporated in the DNA substrate to generate an abasic site via uracyl DNA glycosylase. IN forms a covalent complex (Schiff base), which can be stabilized by reduction with sodium borohydride (Figure 5A). Full-length IN, but also the isolated CCD or CTD domains, can crosslink DNA ([…]). Consistent with anisotropy data, NSC34931 suppresses the formation of IN-DNA crosslinks in the context of the full-length IN (Figure 5B, upper gel). Of note, the effective dose to inhibit this reaction is similar to that needed to inhibit 3′-P or ST (about 0.45 µM). In contrast, the IN CCD requires a 10 times higher concentration of compound to prevent DNA crosslinking, confirming that the NTD or the CTD are important for NSC34931 inhibition. Lastly, the same experiment was conducted with the isolated CTD (Figure 5B, lower gel).
(§2) Figure 5 Inhibition of IN-DNA binding by NSC34931. (A) Principle of the Schiff base crosslinking assay. An abasic site was introduced by uracil DNA glycosylase in the DNA substrate at the -12 position. […]

[2] = biological target: T4, isolated catalytic core domain (CCD) (51–212) (Human immunodeficiency virus type 1 group M subtype B, UniProt P12497); assay: Schiff base IN-DNA crosslinking assay, isolated CCD; format: binding, HIV-1
T4 construct: the isolated catalytic core domain (CCD) (51–212); made in house; host or cells: E. coli RosettaII
Excerpt: as §1, §2

## O=S(=O)(O)c1cc(/N=N/c2cc(S(=O)(=O)O)c3ccccc3c2O)ccc1/C=C/c1ccc(/N=N/c2cc(S(=O)(=O)O)c3ccccc3c2O)cc1S(=O)(=O)O [NSC34931]
HIV-1 integrase
  inhibition at 10 µM: 77.8%
[1]
  concentration up to which disintegration is not inhibited: > 37 µM
full-length IN (1–288)
  effective dose to inhibit IN-DNA crosslink formation: about 0.45 µM
[2]
  fold higher concentration required to prevent DNA crosslinking vs full-length IN: 10

— publication PMC6832134, “Discovery of Novel Integrase Inhibitors Acting outside the Active Site Through High-Throughput Screening” (Molecules, 2019)
